Results reported in US20250171461A1, “STIMULATOR OF INTERFERON GENES (STING) MODULATORS, AND COMPOSITIONS AND METHODS THEREOF” (Geode Therapeutics Inc., priority 2022, published 2025).

The compounds below were run against T1, human HAQ STING isoform (hSTING HAQ) (Homo sapiens, UniProt Q86WV6, G230A/H232R/R293Q/R71H) (assay: IFN-β mRNA level in THP1 cells (qPCR, STING agonist cellular activity)). Details: compound at 3.6 μM, 2 hrs, IFNβ expression normalized against GAPDH by the 2^-ΔΔCT method, DMSO = 1.0.
T1 construct: THP1 cells express the naturally occurring human HAQ STING isoform (hSTING HAQ); host or cells: THP1
Type: cell-based
Description: Cellular activity of STING agonists was determined by mRNA levels of IFN-β in THP1 (Otwo Biotech HTX1621) cell line. THP1 cells express the naturally occurring human HAQ STING isoform (hSTING HAQ), which responses to the activation of STING agonists.
THP1 cells were seeded into Falcon 12-well cell Culture Plate (Corning #353043) at 9×10^5 cells per well, in 1 ml complete culture medium (RPMI-1640, GIBCO #C1187500BT) containing 10% heat inactivated FBS (GIBCO #10099141C), 1% Pen-Strep (HyClone SV30010) and incubated at 37° ΔC, 5% CO2 overnight. On day 2, compound (final concentration at 3.6 μM) or DMSO (0.1%, Sigma Aldrich #8418) was added to THP1 cells and further incubated for 2 hrs min at 37° ΔC, 5% CO2. Cells were then collected for RNA extraction.
Total RNA was extracted with TRIzol reagent (Invitrogen #15596026) and […] was used to synthesize first-strand cDNA with Maxima First Strand cDNA Synthesis Kit (TAKARA #RR036A). Quantitative PCR was performed with Maxima SYBR Green qPCR Master Mix (ABI #4367659, USA). The primer sequences used were as follows: GAPDH (5′-[…]-3′, 5′-[…]-3′). INFP3 (5′-[…]-3′,5′-[…]-3′) Real-time PCR was performed on QuantStudio™ 5 Real-Time PCR System (Thermo Fisher). Relative expression levels of IFNβ gene were normalized against the level of GAPDH expression by the 2^−ΔΔCT method. Each PCR reaction was performed in triplicates.

T1 sequence (Q86WV6 whole entry R71H/G230A/H232R/R293Q, canonical isoform): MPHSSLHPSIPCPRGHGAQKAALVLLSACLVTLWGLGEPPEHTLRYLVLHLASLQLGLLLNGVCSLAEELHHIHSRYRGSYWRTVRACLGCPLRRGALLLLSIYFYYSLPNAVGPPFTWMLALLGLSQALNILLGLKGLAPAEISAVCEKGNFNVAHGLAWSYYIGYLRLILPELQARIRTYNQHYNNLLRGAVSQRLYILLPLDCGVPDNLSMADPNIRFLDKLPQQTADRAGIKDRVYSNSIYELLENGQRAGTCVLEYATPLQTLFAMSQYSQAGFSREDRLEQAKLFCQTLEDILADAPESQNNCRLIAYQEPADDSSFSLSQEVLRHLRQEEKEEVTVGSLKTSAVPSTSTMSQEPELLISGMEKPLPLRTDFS

| Compound | Relative mRNA INFβ/GAPDH THP 1 |
| --- | --- |
| COc1cc(CN(Cc2cn3c4c(c(F)c(F)cc4c2=O)OCC3C)[C@H]2CCCN(c3ccc(N)nc3)C2)c(Cl)cn1 (stereo partly drawn) [Compound 4, 6-((((S)-1-(6-aminopyridin-3-yl)piperidin-3-yl)((5-chloro-2-methoxypyridin-4-yl)methyl)amino)methyl)-9,10-difluoro-3-methyl-2H-[1,4]oxazino[2,3,4-ij]quinolin-7(3H)-one] | 587.4 |
| Cc1cc(CN(Cc2cn3c4c(c(F)c(F)cc4c2=O)OCC3)[C@H]2CCCN(c3cnccn3)C2)ccn1 [Compound 83, (S)-9,10-difluoro-6-((((2-methylpyridin-4-yl)methyl)(1-(pyrazin-2-yl)piperidin-3-yl)amino)methyl)-2,3-dihydro-7H-[1,4]oxazino[2,3,4-ij]quinolin-7-one] | 1.2 |
| Nc1ccc(N2CCC[C@H](N(Cc3ccncc3Cl)Cc3cn4c5c(c(F)c(F)cc5c3=O)OCC4)C2)cn1 [Compound 79, (S)-6-(((1-(6-aminopyridin-3-yl)piperidin-3-yl)((3-chloropyridin-4-yl)methyl)amino)methyl)-9,10-difluoro-2,3-dihydro-7H-[1,4]oxazino[2,3,4-ij]quinolin-7-one] | 335.5 |
| COc1cc(CN(Cc2cn3c4c(c(C5=CCN(C6CC6)CC5)c(F)cc4c2=O)OCC3C)[C@H]2CCCN(c3ccc(N)nc3)C2)ccn1 (stereo partly drawn) [Compound 59, 6-((((S)-1-(6-aminopyridin-3-yl)piperidin-3-yl)((2-methoxypyridin-4-yl)methyl)amino)methyl)-10-(1-cyclopropyl-1,2,3,6-tetrahydropyridin-4-yl)-9-fluoro-3-methyl-2H-[1,4]oxazino[2,3,4-ij]quinolin-7(3H)-one] | 316.7 |
| COc1cc(CN(Cc2cn3c4c(c(N5CCC(N)C5)c(F)cc4c2=O)OCC3C)[C@H]2CCCN(c3ccc(N)nc3)C2)ccn1.Cl (stereo partly drawn) [Compound 34, 6-((((S)-1-(6-aminopyridin-3-yl)piperidin-3-yl)((2-methoxypyridin-4-yl)methyl)amino)methyl)-10-(3-aminopyrrolidin-1-yl)-9-fluoro-3-methyl-2H-[1,4]oxazino[2,3,4-ij]quinolin-7(3H)-one Hydrochloride] | 54.8 |
| COc1cc(CN(Cc2cn3c4c(cc(F)c(F)c4c2=O)OCC3C)[C@H]2CCCN(c3ccc(N)nc3)C2)ccn1 (stereo partly drawn) [Compound 52, 6-((((S)-1-(6-aminopyridin-3-yl)piperidin-3-yl)((2-methoxypyridin-4-yl)methyl)amino)methyl)-8,9-difluoro-3-methyl-2H-[1,4]oxazino[2,3,4-ij]quinolin-7(3H)-one] | 178.2 |
| Nc1ccc(N2CCC[C@H](N(Cc3ccccc3)Cc3cn4c5c(c(F)c(F)cc5c3=O)OCC4)C2)cn1 [Compound 72, (S)-6-(((1-(6-aminopyridin-3-yl)piperidin-3-yl)(benzyl)amino)methyl)-9,10-difluoro-2,3-dihydro-7H-[1,4]oxazino[2,3,4-ij]quinolin-7-one] | 31.9 |
| COc1cc(CN(Cc2cn3c4c(c(F)c(F)cc4c2=O)OCC3C)[C@H]2CCCN(c3ccc(N4CCCC4=O)nc3)C2)ccn1 (stereo partly drawn) [Compound 18, 9,10-difluoro-6-((((2-methoxypyridin-4-yl)methyl)((S)-1-(6-(2-oxopyrrolidin-1-yl)pyridin-3-yl)piperidin-3-yl)amino)methyl)-3-methyl-2H-[1,4]oxazino[2,3,4-ij]quinolin-7(3H)-one] | 4.8 |
| COc1cc(CN(Cc2cn3c4c(c(N5C[C@@H](C)N[C@@H](C)C5)c(F)cc4c2=O)OCC3C)[C@H]2CCCN(c3ccc(N)nc3)C2)ccn1 (stereo partly drawn) [Compound 35, 6-((((S)-1-(6-aminopyridin-3-yl)piperidin-3-yl)((2-methoxypyridin-4-yl)methyl)amino)methyl)-10-((3S,5R)-3,5-dimethylpiperazin-1-yl)-9-fluoro-3-methyl-2H-[1,4]oxazino[2,3,4-ij]quinolin-7(3H)-one] | 3791.8 |
| Cc1cc(CN(Cc2cn3c4c(c(F)c(F)cc4c2=O)OCC3C)[C@H]2CCCN(c3cnccn3)C2)ccn1 (stereo partly drawn) [Compound 14, 9,10-difluoro-3-methyl-6-((((2-methylpyridin-4-yl)methyl)((S)-1-(pyrazin-2-yl)piperidin-3-yl)amino)methyl)-2H-[1,4]oxazino[2,3,4-ij]quinolin-7(3H)-one] | 3848.9 |
| CNC(=O)c1cc(CN(Cc2cn3c4c(c(F)c(F)cc4c2=O)OCC3)[C@H]2CCCN(c3cnccn3)C2)ccn1 [Compound 91, (S)-4-((((9,10-difluoro-7-oxo-2,3-dihydro-7H-[1,4]oxazino[2,3,4-ij]quinolin-6-yl)methyl)(1-(pyrazin-2-yl)piperidin-3-yl)amino)methyl)-N-methylpicolinamide] | 1.0 |
| O=c1c(CN(Cc2ccncn2)[C@H]2CCCN(c3cnccn3)C2)cn2c3c(c(F)c(F)cc13)OCC2 [Compound 85, (S)-9,10-difluoro-6-(((1-(pyrazin-2-yl)piperidin-3-yl)(pyrimidin-4-ylmethyl)amino)methyl)-2,3-dihydro-7H-[1,4]oxazino[2,3,4-ij]quinolin-7-one] | 0.9 |
| COc1cc(CN(Cc2cn3c4c(c(N5CC6(CCN(C)CC6)C5)c(F)cc4c2=O)OCC3C)[C@H]2CCCN(c3ccc(N)nc3)C2)ccn1 (stereo partly drawn) [Compound 45, 6-((((S)-1-(6-aminopyridin-3-yl)piperidin-3-yl)((2-methoxypyridin-4-yl)methyl)amino)methyl)-9-fluoro-3-methyl-10-(7-methyl-2,7-diazaspiro[3.5]nonan-2-yl)-2H-[1,4]oxazino[2,3,4-ij]quinolin-7(3H)-one] | 595.1 |
| COc1cc(CN(Cc2cn3c4c(c(F)c(F)cc4c2=O)OC[C@H]3C)[C@H]2CCCN(c3ccc(N)nc3)C2)ccn1 [Compound 5, (R)-6-((((S)-1-(6-aminopyridin-3-yl)piperidin-3-yl)((2-methoxypyridin-4-yl)methyl)amino)methyl)-9,10-difluoro-3-methyl-2H-[1,4]oxazino[2,3,4-ij]quinolin-7(3H)-one] | 1627.5 |
| COc1cc(CN(Cc2cn3c4c(c(Br)c(F)cc4c2=O)OCC3C)[C@H]2CCCN(c3ccc(N)nc3)C2)ccn1 (stereo partly drawn) [Compound 55, 6-((((S)-1-(6-aminopyridin-3-yl)piperidin-3-yl)((2-methoxypyridin-4-yl)methyl)amino)methyl)-10-bromo-9-fluoro-3-methyl-2H-[1,4]oxazino[2,3,4-ij]quinolin-7(3H)-one] | 655.0 |
| CNc1ccc(N2CCC[C@H](N(Cc3ccnc(OC)c3)Cc3cn4c5c(c(F)c(F)cc5c3=O)OCC4C)C2)cn1 (stereo partly drawn) [Compound 16, 9,10-difluoro-6-((((2-methoxypyridin-4-yl)methyl)((S)-1-(6-(methylamino)pyridin-3-yl)piperidin-3-yl)amino)methyl)-3-methyl-2H-[1,4]oxazino[2,3,4-ij]quinolin-7(3H)-one] | 114.6 |
| COc1cc(CN(Cc2cn3c4c(c(N5CCCCC5=O)c(F)cc4c2=O)OCC3C)[C@H]2CCCN(c3ccc(N)nc3)C2)ccn1 (stereo partly drawn) [Compound 60, 6-((((S)-1-(6-aminopyridin-3-yl)piperidin-3-yl)((2-methoxypyridin-4-yl)methyl)amino)methyl)-9-fluoro-3-methyl-10-(2-oxopiperidin-1-yl)-2H-[1,4]oxazino[2,3,4-ij]quinolin-7(3H)-one] | 174.3 |
| Cc1cc(CN(Cc2cn3c4c(c(F)c(F)cc4c2=O)OCC3)[C@H]2CCCN(c3cccnc3)C2)ccn1 [Compound 81, (S)-9,10-difluoro-6-((((2-methylpyridin-4-yl)methyl)(1-(pyridin-3-yl)piperidin-3-yl)amino)methyl)-2,3-dihydro-7H-[1,4]oxazino[2,3,4-ij]quinolin-7-one] | 5719.5 |
| COc1cc(CN(Cc2cn3c4c(c(N5CCN(Cc6oc(=O)oc6C)CC5)c(F)cc4c2=O)OCC3C)[C@H]2CCCN(c3ccc(N)nc3)C2)ccn1 (stereo partly drawn) [Compound 25, 6-((((S)-1-(6-aminopyridin-3-yl)piperidin-3-yl)((2-methoxypyridin-4-yl)methyl)amino)methyl)-9-fluoro-3-methyl-10-(4-((5-methyl-2-oxo-1,3-dioxol-4-yl)methyl)piperazin-1-yl)-2H-[1,4]oxazino[2,3,4-ij]quinolin-7(3H)-one] | 604.8 |
| COc1cc(CN(Cc2cn3c4c(c(N5CCN(CNC(N)=O)CC5)c(F)cc4c2=O)OCC3C)[C@H]2CCCN(c3ccc(N)nc3)C2)ccn1 (stereo partly drawn) [Compound 26, 1-((4-(6-((((S)-1-(6-aminopyridin-3-yl)piperidin-3-yl)((2-methoxypyridin-4-yl)methyl)amino)methyl)-9-fluoro-3-methyl-7-oxo-3,7-dihydro-2H-[1,4]oxazino[2,3,4-ij]quinolin-10-yl)piperazin-1-yl)methyl)urea] | 3.5 |
